Measurements from patent publication EP4596556A1, “SPIROCYCLIC DERIVATIVE-CONTAINING SALT OR CRYSTAL FORM, AND PREPARATION METHOD THEREFOR AND USE THEREOF” (Shujing Biopharma Co., Ltd, priority 2022, dated 2024).
In brackets after ≈: the same amount, converted by molar mass. Structures can show the parent of a compound that is named as a salt. Where two headings read alike, the source gives them in different places.

What was measured:
TAAR1 receptor = molecular target: T1, TAAR1 receptor (Homo sapiens, UniProt Q96RJ0); experiment: TAAR1 receptor cAMP agonist test; type: cell-based
T1 sequence (Q96RJ0 1-339): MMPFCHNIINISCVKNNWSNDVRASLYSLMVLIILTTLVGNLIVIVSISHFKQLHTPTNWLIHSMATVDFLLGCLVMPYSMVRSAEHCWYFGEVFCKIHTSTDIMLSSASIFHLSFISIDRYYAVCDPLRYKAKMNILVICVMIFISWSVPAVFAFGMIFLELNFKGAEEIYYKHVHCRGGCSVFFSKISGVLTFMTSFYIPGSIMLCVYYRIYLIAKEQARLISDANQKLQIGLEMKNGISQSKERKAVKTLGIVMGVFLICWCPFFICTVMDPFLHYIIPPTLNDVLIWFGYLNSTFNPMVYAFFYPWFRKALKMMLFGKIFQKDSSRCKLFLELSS
Source text: The cAMP detection kit was purchased from Cisbio; the […] cell line stably expressing TAAR1 receptor was constructed by Shanghai Shujing Biotechnology Co., Ltd.; IBMX was purchased from Sigma; Phenethylamine (PEA); ProxiPlate-384 well plate was purchased from PerkinElmer; HBSS was purchased from Thermo Fisher Scientific Company.
Activation rate (activity%)=(negative control ratio-compound ratio)/(negative control ratio-positive control ratio)×100%.
The EC50 values of the compounds were calculated using the four-parameter fitting model log(agonist)vs.response--Variable slope(four parameters) in GraphPad Prism.

5-HT1A receptor = molecular target: T2, 5-HT1A receptor (Homo sapiens, UniProt P08908); experiment: 5-HT1A receptor cAMP agonist test; type: cell-based
T2 sequence (P08908 1-422): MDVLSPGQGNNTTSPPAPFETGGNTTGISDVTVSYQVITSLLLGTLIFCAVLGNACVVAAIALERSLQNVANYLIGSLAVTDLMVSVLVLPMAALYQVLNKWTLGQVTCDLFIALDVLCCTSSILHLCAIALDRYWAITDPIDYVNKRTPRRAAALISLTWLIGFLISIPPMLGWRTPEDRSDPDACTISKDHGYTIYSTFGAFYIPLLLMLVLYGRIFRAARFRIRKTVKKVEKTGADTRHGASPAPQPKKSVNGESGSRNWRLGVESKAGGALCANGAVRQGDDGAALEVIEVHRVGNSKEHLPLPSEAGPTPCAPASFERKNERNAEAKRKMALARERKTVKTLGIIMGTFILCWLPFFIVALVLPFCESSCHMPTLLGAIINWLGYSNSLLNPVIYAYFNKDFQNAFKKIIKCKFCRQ
Source text: The cAMP detection kit was purchased from Cisbio; the HEK293 cell line stably expressing 5-HT1A receptor was constructed by Shanghai Shujing Biotechnology Co., Ltd.; Serotonin, Forskolin and IBMX were purchased from Sigma; ProxiPlate-384-well plates was purchased from PerkinElmer; HBSS was purchased from Thermo Fisher Scientific.
Activation rate (activity%)=(negative control ratio-compound ratio)/(negative control ratio-positive control ratio)×100%
The EC50 values of the compounds were calculated using the four-parameter fitting model log(agonist)vs. response--Variable slope(four parameters) in Graph Pad Prism.

[1] = system: high spontaneous activity induced by MK-801 in mice; experiment: Inhibition of high spontaneous activity induced by MK-801 in mice; type: in vivo; settings: p.o., MK-801 0.3 mg/kg i.p., male C57Bl/6J mice
Method: Compounds to be tested: compounds in the examples of the present application, self-made.
3.2.1 Grouping of animals: before the start of the experiment, animals were randomly grouped according to body weight.
3.2.2 Animal adaptation: before the experiment, the mice were first adapted to the experimental environment for at least 1 hour. That is, the animals were transferred from the breeding room to the laboratory and moved freely in the cage.
(§1) Drug preparation: taking the compound to be tested, adding pure water and performing ultrasonication.
The blank control group was injected with normal saline.
(§2) The activities of these animals (movement distance in the test box) were automatically recorded by the camera, and analyzed with ANY MAZE software, and the ED50 values were calculated.

[2] = system: high spontaneous activity induced by PCP in mice; experiment: Inhibition of high spontaneous activity induced by PCP in mice; type: in vivo; settings: p.o., PCP 5 mg/kg i.p., male C57Bl/6J mice
Method: Compounds to be tested: compounds of the examples of the present application, self-made.
That is, animals were transferred from the feeding room to the laboratory, and moved freely in the cage.
as §1
T0 min intraperitoneal injection of modeling drug: 30 minutes after compound administration, the mice were taken out, and administered with PCP (5 mg/kg) by intraperitoneal injection. The blank control group was injected with pure water. After the administration of PCP, the animals were immediately put back into the test box, and the test was continued for 60 minutes.
as §2

[3] = Equilibrium solubility in water for 24 hours; type: physicochemical
Method: Investigating the equilibrium solubility of each hydrochloride crystal form of Compound A in water for 24 hours.
Excess samples of hydrochloride crystal form I and hydrochloride crystal form II of Compound A were weighed and placed in different 10 mL centrifuge tubes, and 1 mL of deionized water was added, sealed with a parafilm, shaking at a constant temperature of 37°C and 150 rpm for 24 hours; after passing through a 0.45 µm organic filter, the sample was diluted and injected for HPLC analysis.

[4] = Solution stability at different pH (HPLC content, 0-24 hours); type: physicochemical; settings: after 24 hours at pH 1.0, 3.0, 5.0 and 7.0
Method: Investigating the solution stability of each hydrochloride crystal form of Compound A.
Solutions with pH of 1.0, 3.0, 5.0, and 7.0 solutions were prepared using hydrochloric acid, phosphoric acid, and sodium hydroxide. Appropriate amounts of hydrochloride crystal form I and hydrochloride crystal form II of Compound A were accurately weighed respectively and added to corresponding 20 mL volumetric flasks and labeled, dissolving in media with different pH, passing through a 0.45 µ m organic filters for HPLC analysis. The content changes of the samples from 0-24 hours were monitor, and the results were calculated.

[5] = Solid (chemical) stability under high temperature, high humidity and light; type: physicochemical
Method: Investigating the chemical stability of each hydrochloride crystal form of Compound A under high temperature, high humidity, and light conditions.
Appropriate amounts of hydrochloride crystal form I and hydrochloride crystal form II of Compound A were weighed and placed in weighing dishes respectively; three samples for each salt were prepared, and placed respectively in a oven at 60°C, a drying dish with RH 92.5%, and a stability test chamber with an illumination condition of 5000 1x for 85 days. After mixing all samples evenly at day 0, day 10, day 20, and day 85, samples were taken and dissolved in acetonitrile and water, and the content and impurity changes were detected by HPLC-related substance detection method.

[6] = Mouse pharmacokinetic experiment, oral gavage; type: in vivo; settings: ICR mice, 5 mg/kg, plasma
Method: The mice were administered by oral gavage, and the plasma concentrations of each hydrochloride crystal form of Compound A in mice were determined, the PK parameters were calculated, and the pharmacokinetics were evaluated.
• (1) Experimental samples: hydrochloride crystal forms I, II, and III of Compound A of the present application, self-made. • (2) Experimental animals: ICR mice, SPF grade, male, Shanghai SLAC Laboratory Animal Co., Ltd.
The compound was administered via oral gavage at a dosage of 5 mg/kg. ICR mice were stratified by body weight and randomly divided into groups of 3 mice each, and fasted overnight before the experiment. Administering according to the prescribed dosage and schedule, and […] of blood was taken from the mandibular vein or saphenous vein of mice by cross sampling at fixed time points to a sample tube containing anticoagulant sodium heparin and placed in wet ice, centrifuging at 4000 r · min^-1 for 10 minutes to separate the plasma for LC-MS analysis.
The measured blood drug concentration-time data was substituted into the Winnonlin 7.0 program to calculate the main pharmacokinetic parameters. Table 3.3: Results of mouse pharmacokinetic experiments

[7] = Mus musculus, half effective dose

| Structure (SMILES) | solution stability [4] | Increase of total impurities (%) day 10 ([5]; High humidity of RH 92.5%) [%] | Increase of total impurities (%) day 20 ([5]; High humidity of RH 92.5%) [%] | Increase of total impurities (%) day 85 ([5]; High humidity of RH 92.5%) [%] | Increase of total impurities (%) day 10 ([5]; High temperature of 60°C) [%] | Increase of total impurities (%) day 20 ([5]; High temperature of 60°C) [%] | Increase of total impurities (%) day 85 ([5]; High temperature of 60°C) [%] | Increase of total impurities (%) day 10 ([5]; Illumination of 5000 lx) [%] | Increase of total impurities (%) day 20 ([5]; Illumination of 5000 lx) [%] | Increase of total impurities (%) day 85 ([5]; Illumination of 5000 lx) [%] | AUC(inf) [6] [ng·h/mL] | Cmax [6] [ng/mL] | Tmax [6] [h] | t1/2 [6] [h] | also measured |
| --- | --- | --- | --- | --- | --- | --- | --- | --- | --- | --- | --- | --- | --- | --- | --- |
| CNC[C@@H]1OCC2(CC2)c2sccc21 (single isomer, unassigned) [Compound A] |  |  |  |  |  |  |  |  |  |  |  |  |  |  | EC50 (TAAR1 receptor; cAMP agonist assay, cell line stably expressing TAAR1 receptor): 1.55 µM; TAAR1 Max Act% (TAAR1 receptor; maximum activation rate relative to PEA positive control): 95.5%; EC50 (5-HT1A receptor; cAMP agonist assay, HEK293 cell line stably expressing 5-HT1A receptor, Forskolin): 1.04 µM; 5-HT1A Max Act% (5-HT1A receptor; maximum activation rate relative to Serotonin positive control): 95.2%; ED50 [1, 7]: 4.48 mg/kg; MED ([1]; minimum effective dose): 10 mg/kg; ED50 [2, 7]: 0.45 mg/kg; MED ([2]; minimum effective dose): 0.1 mg/kg |
| CNC[C@@H]1OCC2(CC2)c2sccc21 [Hydrochloride crystal form II of Compound A] [(R)-1-(4'H,6'H-spiro[cyclopropane-1,7'-thieno[3,2-c]pyran]-4'-yl)-N-methylmethyl-amine] | good stability | <0.1 | <0.1 | 0.145 | <0.1 | <0.1 | 0.133 | <0.1 | <0.1 | <0.1 | 1546.6 | 488.7 | 0.5 | 2.2 | Solubility ([3]; equilibrium solubility in deionized water, 37°C): 162.30 mg/mL |
| CNC[C@@H]1OCC2(CC2)c2sccc21 [Hydrochloride crystal form I of Compound A] [(R)-1-(4'H,6'H-spiro[cyclopropane-1,7'-thieno[3,2-c]pyran]-4'-yl)-N-methylmethyl-amine] | good stability | <0.1 | <0.1 | 0.199 | <0.1 | <0.1 | 0.182 | <0.1 | <0.1 | <0.1 |  |  |  |  |  |
| CNC[C@@H]1OCC2(CC2)c2sccc21 [(R)-1-(4'H,6'H-spiro[cyclopropane-1,7'-thieno[3,2-c]pyran]-4'-yl)-N-methylmethyl-amine] |  |  |  |  |  |  |  |  |  |  | 1452.6 | 480.3 | 0.5 | 3.6 | solubility at 24 h ([3]; deionized water, 37 °C, water, thermodynamic from solid): 155 mg/mL (≈ 740 mM); AUC(0-inf) ([6]; male, ICR, mouse, po): 1930 ng·h/mL; half-life ([6]; male, ICR, mouse, po): 2.8 h; Cmax ([6]; male, ICR, mouse, po, read-out: Cmax): 606 ng/mL; Tmax ([6]; male, mouse, read-out: Tmax): 0.5 h |
